Where two headings read alike, the source gives them in different places.
Molecular target: T1, RORγ ligand binding domain (LBD) (Homo sapiens, UniProt P51449)
T1 construct: made in house; host or cells: E. coli BL-21 (BL3), vector pDEST15
T1 sequence (P51449 269-508 limits assumed): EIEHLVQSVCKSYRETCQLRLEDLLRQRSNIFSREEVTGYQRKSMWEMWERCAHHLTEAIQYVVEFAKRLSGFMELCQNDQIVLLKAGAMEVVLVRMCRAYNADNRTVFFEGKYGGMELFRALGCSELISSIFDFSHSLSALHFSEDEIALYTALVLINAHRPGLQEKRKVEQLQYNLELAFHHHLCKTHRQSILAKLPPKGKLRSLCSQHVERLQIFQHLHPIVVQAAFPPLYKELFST
Assay: TR-FRET Activity Assay (ligand sensing, RORγ-LBD / coactivator peptide interaction)
Type: biochemical
Source text: This method measures the ability of putative ligands to modulate the interaction between the purified bacterial expressed RORγ ligand binding domain (LBD) and synthetic N-terminally biotinylated peptides which are derived from nuclear receptor coactivator proteins such as but not limited to SRC1 (NcoA1), SRC2 (NcoA2, TIF2), SRC3 (NcoA3), PGC1α, PGC1β, CBP, GRIP1, TRAP220, RIP140.
The ligand-binding domain (LBD) of RORγ was expressed as fusion protein with GST in […] cells using the vector pDEST15. Cells were lysed by lysozyme-treatment and sonication, and the fusion proteins purified over glutathione sepharose (Pharmacia) according to the manufacturers instructions. For screening of compounds for their influence on the RORγ-peptide interaction, the LANCE technology (Perkin Elmer) was applied. This method relies on the binding dependent energy transfer from a donor to an acceptor fluorophor attached to the binding partner of interest. For ease of handling and reduction of background from compound fluorescence LANCE technology makes use of generic fluorophore labels and time resolved detection assays were done in a final volume of 25 μL in a 384 well plate, in a Tris-based buffer system (20 mM Tris-HCl pH6.8; 60 mM KCl, 1 mM DTT; 5 mM MgCl2; 35 ng/μL BSA), containing 20-60 ng/well recombinantly expressed RORγ-LBD fused to GST, 200-600 nM N-terminally biotinylated peptide, 200 ng/well Streptavidin-xIAPC conjugate (Prozyme) and 6-10 ng/well Eu W1024-antiGST (Perkin Elmer). DMSO content of the samples was kept at 1%.
After generation of the Tris-based buffer system, the potentially RORγ modulating ligands were diluted. […] The LANCE signal was detected by a Perkin Elmer EnVision™ Multilabel Counter. The results were visualized by plotting the ratio between the emitted light at 665 nm and 615 nm. […] Ligands that promote the complex formation induce a concentration-dependent increase in time-resolved fluorescent signal.
The normalised TR-FRET assay values, using the following equation: 1000*665 nm measurement value/615 nm measurement value, were transferred to the program GraphPad Prism to generate graphs and dose response curves using the following equation:
Equation: Sigmoidal Dose-Response (Variable Slope) Y=Bottom+(Top-Bottom)/(1+10^((LogEC50−X)*HillSlope)) X is the logarithm of the concentration. Y is the response. Y starts at Bottom and goes to Top with a sigmoidal shape.
This is identical to the “four parameter logistic equation”. The IC50 values are calculated using this equation.

[1] = read-out: RORγ activity in the TR-FRET Activity Assay (IC50 FRET), Group

Compound	IC50 [1] [nM]	IC50 [nM]
CC(C)(C)c1cc(-c2c(Cl)c(S(N)(=O)=O)c(Cl)n2CC2CCCCC2)cc(C(C)(C)C)c1 [Example 30, 2,4-Dichloro-1-(cyclohexylmethyl)-5-(3,5-di-tert-butylphenyl)-1H-pyrrole-3-sulfonamide]	500 to 2000	–
Cc1c(S(=O)(=O)NCCC(=O)O)cc(-c2cc(C(C)(C)C)cc(C(C)(C)C)c2)n1CC1CCCCC1 [Example 39, 3-(1-(Cyclohexylmethyl)-5-(3,5-di-tert-butylphenyl)-2-methyl-1H-pyrrole-3-sulfonamido)propanoic acid]	500 to 2000	–
Cc1c(S(N)(=O)=O)cc(-c2cc(C(C)(C)C)cc(C(C)(C)C)c2)n1CC1CCOCC1 [1/20]	> 2000	–
Cc1c(S(N)(=O)=O)cc(-c2cc(C(C)C)c3c(c2)C(C)(C)NS3(=O)=O)n1CC1CCCCC1 [12/17]	> 2000	–
Cc1c(S(N)(=O)=O)cc(-c2cnc(NCC(C)(C)C)c(C(F)(F)F)c2)n1CC1CCCCC1 [34/5]	500 to 2000	–
Cc1c(S(N)(=O)=O)cc(-c2cc3c(c(C(C)(C)C)c2)OCC(=O)N3C(C)C)n1CC1CCCCC1 [12/10]	–	500 to 2000
Cc1c(S(N)(=O)=O)cc(-c2cn(S(=O)(=O)c3ccccc3)c3ccccc23)n1CC1CCCCC1 [1/19]	500 to 2000	–
COCC(C)(C)NS(=O)(=O)c1ccc(-c2cc(S(N)(=O)=O)c(C)n2CC2CCCCC2)cc1C(F)(F)F [12/32]	500 to 2000	–
Cc1c(S(N)(=O)=O)cc(-c2cc(OCC(C)C)nc(C(C)(C)C)c2)n1CC1CCCCC1 [Example 17, 5-(2-tert-Butyl-6-isobutoxypyridin-4-yl)-1-(cyclohexylmethyl)-2-methyl-1H-pyrrole-3-sulfonamide]	< 500	–
CC(C)(C)c1cc(-c2c(Br)c(S(N)(=O)=O)c(Br)n2CC2CCCCC2)cc(C(C)(C)C)c1 [Example 32, 2,4-Dibromo-1-(cyclohexylmethyl)-5-(3,5-di-tert-butylphenyl)-1H-pyrrole-3-sulfonamide]	500 to 2000	–
Cc1c(S(N)(=O)=O)cc(-c2cc(C(C)(C)C)cc(C(C)(C)CF)c2)n1CC1CCCCC1 [12/26]	> 2000	–
CCNS(=O)(=O)c1cc(-c2cc(C(C)(C)C)cc(C(C)(C)C)c2)n(CC2CCCCC2)c1C [Example 2, 1-(Cyclohexylmethyl)-5-(3,5-di-tert-butylphenyl)-N-ethyl-2-methyl-1H-pyrrole-3-sulfonamide]	–	< 500
Cc1c(S(N)(=O)=O)cc(-c2cn(S(=O)(=O)NC3CCCCC3)c3ccccc23)n1CC1CCCCC1 [1/34]	500 to 2000	–
Cc1c(S(N)(=O)=O)cc(-c2cc(C(C)(C)C)cc(C(C)(C)C(=O)O)c2)n1CC1CCCCC1 [Example 46, 2-(3-(tert-Butyl)-5-(1-(cyclohexylmethyl)-5-methyl-4-sulfamoyl-1H-pyrrol-2-yl)phenyl)-2-methylpropanoic acid]	> 2000	–
Cc1c(S(N)(=O)=O)cc(-c2cc(OC(C)C)cc(C(C)(C)C)c2)n1CC1CCCCC1 [16/2]	500 to 2000	–
Cc1c(S(N)(=O)=O)cc(-c2cc3c(c(C(C)(C)C)c2)OCCC3O)n1CC1CCCCC1 (stereo not drawn) [12/45]	> 2000	–
Cc1c(S(N)(=O)=O)cc(-c2cc(C(C)(C)C)c(C(=O)O)c(C(C)(C)C)c2)n1CC1CCCCC1 [Example 8, 2,6-Di-tert-butyl-4-(1-(cyclohexylmethyl)-5-methyl-4-sulfamoyl-1H-pyrrol-2-yl)benzoic acid]	> 2000	–
Cc1c(S(N)(=O)=O)cc(-c2ccc3c(c2)C(C)(C)CN(C(C)C)S3(=O)=O)n1CC1CCCCC1 [12/18]	> 2000	–
Cc1c(S(=O)(=O)NCC(C)(C)O)cc(-c2cc(C(C)(C)C)cc(C(C)(C)C)c2)n1CC1CCCCC1 [2/5]	–	< 500
COCCNS(=O)(=O)c1cc(-c2cc(C(C)(C)C)cc(C(C)(C)C)c2)n(CC2CCCCC2)c1C [Example 2/1]	–	< 500
CC(=O)NCC(C)(C)c1cc(-c2cc(S(N)(=O)=O)c(C)n2CC2CCCCC2)cc(C(C)(C)C)c1 [Example 49, N-(2-(3-(tert-Butyl)-5-(1-(cyclohexylmethyl)-5-methyl-4-sulfamoyl-1H-pyrrol-2-yl)phenyl)-2-methylpropyl)acetamide]	> 2000	–
Cc1c(S(=O)(=O)NCC(=O)O)cc(-c2cc(C(C)(C)C)cc(C(C)(C)C)c2)n1CC1CCCCC1 [Example 43, 2(1-(Cyclohexylmethyl)-5(3,5-di-tert-butylphenyl)-2-methyl-1H-pyrrole-3-sulfonamido)acetic acid]	> 2000	–
Cc1c(S(N)(=O)=O)cc(-c2cn(S(=O)(=O)N3CCCCC3)c3ccccc23)n1CC1CCCCC1 [1/33]	500 to 2000	–
COc1cc(-c2cc(S(N)(=O)=O)c(C)n2CC2CCCCC2)cc(C(C)(C)C)n1 [17/1]	> 2000	–
Cc1c(S(N)(=O)=O)cc(-c2cc(OCCCN3CCOCC3)nc(C(C)(C)C)c2)n1CC1CCCCC1 [17/3]	> 2000	–
Cc1c(S(=O)(=O)NCC(C)(C)C(=O)O)cc(-c2ccc(S(=O)(=O)NC(C)(C)C)c(C(C)(C)C)c2)n1CC1CCCCC1 [Example 11, 3-(5-(3-(tert-Butyl)-4-(N-(tert-butyl)sulfamoyl)phenyl)-1-(cyclohexylmethyl)-2-methyl-1H-pyrrole-3-sulfonamido)-2,2-dimethylpropanoic acid]	> 2000	–
Cc1c(S(N)(=O)=O)cc(-c2cc(C(C)(C)O)c3c(c2)C2(CCO3)CC2)n1CC1CCCCC1 [Example 37, 1-(Cyclohexylmethyl)-5-(8-(2-hydroxypropan-2-yl)spiro[chroman-4,1′-cyclopropan]-6-yl)-2-methyl-1H-pyrrole-3-sulfonamide]	> 2000	–
Cc1c(S(=O)(=O)NC2CCCC2)cc(-c2cc(C(C)(C)C)cc(C(C)(C)C)c2)n1CC1CCCCC1 [2/4]	500 to 2000	–

Now from value to molecule, other results behind:

IC50 [1] [nM]	Compound	IC50 [nM]
500 to 2000	Cc1c(S(=O)(=O)NC2CCC2)cc(-c2cc(C(C)(C)C)cc(C(C)(C)C)c2)n1CC1CCCCC1 [2/3]	–
< 500	Cc1c(S(=O)(=O)NCCO)cc(-c2cc(C(C)(C)C)cc(C(C)(C)C)c2)n1CC1CCCCC1 [2/2]	–
< 500	Cc1c(S(N)(=O)=O)cc(-c2cc(C(C)(C)C)cc(C(C)(C)C)c2)n1CCC1CCCC1 [1/22]	–
< 500	Cc1c(S(=O)(=O)NCCN2CCOCC2)cc(-c2cc(C(C)(C)C)cc(C(C)(C)C)c2)n1CC1CCCCC1 [2/6]	–
< 500	Cc1c(S(N)(=O)=O)cc(-c2ccc(S(=O)(=O)NC(C)(C)C)c(C3(C)CC3)c2)n1CC1CCCCC1 [22/18]	–
< 500	CCC(C)(C)NS(=O)(=O)c1ccc(-c2cc(S(N)(=O)=O)c(C)n2CC2CCCCC2)cc1C(F)(F)F [22/6]	–
< 500	Cc1c(S(N)(=O)=O)cc(-c2cc(C(C)(C)C)cc(C(C)(F)F)c2)n1CC1CCCCC1 [Example 7, 5-(3-(tert-Butyl)-5-(1,1-difluoroethyl)phenyl)-1-(cyclohexylmethyl)-2-methyl-1H-pyrrole-3-sulfonamide]	–
< 500	Cc1c(S(=O)(=O)NCCC(N)=O)c(Cl)c(-c2cc(C(C)(C)C)cc(C(C)(C)C)c2)n1CC1CCCCC1 [Example 41, 3-(4-chloro-1-(cyclohexylmethyl)-5-(3,5-di-tert-butylphenyl)-2-methyl-1H-pyrrole-3-sulfonamido)propanamide]	–
< 500	Cc1c(S(=O)(=O)N2CCOCC2)cc(-c2cc(C(C)(C)C)cc(C(C)(C)C)c2)n1CC1CCCCC1 [Example 44, 4-((1-(Cyclohexylmethyl)-5-(3,5-di-tert-butylphenyl)-2-methyl-1H-pyrrol-3-yl)sulfonyl)morpholine]	–
< 500	Cc1c(S(N)(=O)=O)cc(-c2cc(C3(C)CC3)cc(C3(C)CC3)c2)n1CC1CCCCC1 [12/40]	–
< 500	Cc1ccc2c(-c3cc(S(N)(=O)=O)c(C)n3CC3CCCCC3)cn(S(=O)(=O)N3CCCCC3)c2c1 [1/35]	–
< 500	Cc1c(S(N)(=O)=O)cc(-c2cc(C(C)(C)C)cc(C3(C)CC3)c2)n1CC1CCCCC1 [12/33]	–
< 500	Cc1c(S(N)(=O)=O)cc(-c2ccc(S(=O)(=O)N(C)C(C)(C)C)c(C(C)(C)C)c2)n1CC1CCCCC1 [22/2]	–
< 500	Cc1c(S(=O)(=O)NC2CC2)cc(-c2cc(C(C)(C)C)cc(C(C)(C)C)c2)n1CC1CCCCC1 [Example 3, 1-(Cyclohexylmethyl)-N-cyclopropyl-5-(3,5-di-tert-butylphenyl)-2-methyl-1H-pyrrole-3-sulfonamide]	–

From patent publication US8946446B2, “Pyrrolo sulfonamide compounds for modulation of orphan nuclear receptor RAR-related orphan receptor-γ (ROR-γ, NR1F3) activity and for the treatment of chronic inflammatory and autoimmune diseases” (Phenex Pharmaceuticals AG, priority 2011, dated 2015)
